# Laboratory results from patent publication US8669288B2, “Lysine salts of 4-((phenoxyalkyl)thio)-phenoxyacetic acid derivatives” (Janssen Pharmaceutica N.V., priority 2005, dated 2014).
# Where a name gives a salt, the structure may show the parent alone.
# Key:
# Format in all cases: physicochemical
# [1] = DVS isotherm, cycling humidity 0-90% RH; details: 25° C., 0-90% RH in 10% RH increments
# Procedure: The non-hydrate, L-lysine salt of the compound of formula (Ia) was subjected to cycling humidity conditions, with results as shown in FIG. 3. More specifically, the sample was analyzed through a full cycle in step mode at 25° C., from 0-90% RH (relative humidity) in 10% RH increments. The equilibration conditions set were as follows: dm/dt of 0.0007; dm/dt window of 5 mins; minimum and maximum stages of 15 and 360 minutes. Data was collected in 1 minute intervals. Nitrogen was used as the carrier gas.
# pKa = assay: pKa
# [2] = Solubility in distilled water
Structure (SMILES),Form conversion under cycling humidity conditions [1],pKa (pKa),"solubility ([2]; pH 7.4, water) [µg/mL]","solubility ([2]; water, pH 2.0) [µg/mL]"
CCO[C@H](COc1ccc(C(F)(F)F)cc1)CSc1ccc(OCC(=O)O)c(C)c1 [{4-[2-Ethoxy-3-(4-trifluoromethyl-phenoxy)-propylsulfanyl]-2-methyl-phenoxy}-acetic acid L-Lysine non-hydrate salt],reversibly converts to the corresponding di-hydrate form by absorbing water,–,–,–
"CCO[C@H](COc1ccc(C(F)(F)F)cc1)CSc1ccc(OCC(=O)O)c(C)c1 [Compound of formula (la), (R)-{4-[2-Ethoxy-3-(4-trifluoromethyl-phenoxy)-propylsulfanyl]-2-methyl-phenoxy}-acetic acid]",–,3.63,~1000,< 2
